Source: patent publication US20250263370A1 (Tay Therapeutics Limited, priority 2022, published 2025)

Tests used:
[1] = tested on: collagen-induced arthritis; details: rat, in vivo, po
Description: Prior to be randomly placed in treatment groups, animals were weighed, and paw volume was measured. Once randomly assigned to treatment groups, on Day 0, animals in groups 2-9 were immunized by subcutaneous injection at the base of the tail.
The immunization comprised 100 μL of the CFA+Collagen emulsion (prepared according to the method in Experimental Method A). Animals in group one received no immunization. Seven days after the first injection, animals in groups 2-9 received a booster immunization comprising 200 μL of the IFA+Collagen emulsion (prepared according to the method in Experimental Method A).
Starting on Day 0, animals in group 1 and 2 were administered daily doses of the vehicle per os (P.O.) for 21 days. […] The twice daily doses for animals in groups 4-9 were 8 hours apart (e.g., the first dose at 8:00 AM and the second dose at 4:00 PM).
Body weight of all animals was recorded daily for the 21-day period. Blind clinical scores on all four limbs were conducted for all animals in the study. Animals were assessed prior to receiving their first dose of the compound or control, and scores for each limb were combined to a total daily score for each animal. Clinical score assessments were performed on Day 0, 6, 12, 13, 14, 15, 18, 19, and 21 (for a total of 9 daily scores).
Paw volume was recorded for each animal on Day 0, 6, 12, 13, 14, 15, 18, 19, and 21 (for a total of 9 measurements). To measure paw volume, animals were gently held with one hand while the hind paw was placed into a plethysmometer with the other hand. Lipid displacement by the paw was recorded and used to represent paw volume.
All data measured and recorded was analyzed using SPSS 16.0 software. Groups were compared using one-way ANOVA and significance was set at p<0.05.

[2] = tested on: collagen-induced arthritis; assay: Histopathologic analysis of H&E-stained hind limbs of CIA rats; format: in vivo, Lewis rat; details: for pathologic observations after microscopic evaluation, overall: CIA rats, daily P.O. for 21 days
Excerpt: Hind limbs were collected following euthanasia, with the left limb being used for H&E staining.
H&E-stained slides of designated tissues from animals were transferred to an independent pathologist for microscopic evaluation (SPFBio). Samples were assigned the histologic grades based on the severity of change from tissue where CIA was not induced. Histology grades assigned were as follows: grade 1 (minimal change), grade 2 (mild change), grade 3 (moderate change), grade 4 (marked change), and grade 5 (severe change).
Moderate inflammation was also associated with increased edema fluid, fibrin, and cellular debris. Marked mixed cell inflammation was characterized by dense, widespread accumulations of neutrophils and macrophages with lesser number of lymphocytes within one or more joint spaces, synovium and periarticular soft tissues. Marked inflammation was also associated with abundant edema fluid, fibrin, and cellular debris.
Marked granulation tissue (pannus) was associated with inflammation and was characterized by widespread fibrovascular connective tissue that expanded/replaced the periarticular soft tissues of one or more joints, extended into/expanded joint spaces, was contiguous with areas of erosion/ulcer in articular cartilage and/or increased eroded surface of bone, and variably extended along the diaphysis.
Instances of minimal increased eroded surface were not associated with fragments of bone contiguous and/or surrounded by granulation tissue. […] In some areas, increased eroded surfaces were contiguous with areas of erosion/ulcer in the articular cartilages. Instance of marked increased eroded surface were often associated with fragments of bone contiguous with and/or surrounded by granulation tissue.
This observation was typically most pronounced at joint margins (transition zone). The ulceration was often associated with inflammation and granulation tissue extending through the defect to the subchondral bone.
Marked increased periosteal bone (periosteal bone formation) was characterized by extensive areas of increased bone matrix and numerous prominent osteoblasts lining trabecular surfaces along the metaphysis and/or diaphysis of one or more bones. In some areas, increased periosteal bone was contiguous with increased eroded surface and/or erosion/ulcer at articular cartilage.

[3] = hind limbs, CIA induced, 8 animals examined

C[C@@H]1C[C@H]2[C@@H]3CCC4=CC(=O)C=C[C@]4(C)[C@@]3(F)[C@@H](O)C[C@]2(C)[C@@]1(O)C(=O)CO [dexamethasone]
body weight over the course of the study [1]: did not exhibit weight gains over the first 13 days of the study
pathologic observations after microscopic evaluation, overall [2]: No pathologic observations were noted
pathologic observations after microscopic evaluation, overall ([2]; listed as Dexamethasone): no histopathological observations noted
Number of animals: Erosion/Ulcer, cartilaginous, Marked [2, 3]: 0
Number of animals: Erosion/Ulcer, cartilaginous, Mild [2, 3]: 0
Number of animals: Erosion/Ulcer, cartilaginous, Minimal [2, 3]: 0
Number of animals: Erosion/Ulcer, cartilaginous, Moderate [2, 3]: 0
Number of animals: Granulation tissue, Marked [2, 3]: 0
Number of animals: Granulation tissue, Mild [2, 3]: 0
Number of animals: Granulation tissue, Minimal [2, 3]: 0
Number of animals: Granulation tissue, Moderate [2, 3]: 0
Number of animals: Increased bone, periosteum, Marked [2, 3]: 0
Number of animals: Increased bone, periosteum, Mild [2, 3]: 0
Number of animals: Increased bone, periosteum, Minimal [2, 3]: 0
Number of animals: Increased bone, periosteum, Moderate [2, 3]: 0
Number of animals: Increased eroded surface, bone, Marked [2, 3]: 0
Number of animals: Increased eroded surface, bone, Mild [2, 3]: 0
Number of animals: Increased eroded surface, bone, Minimal [2, 3]: 0
Number of animals: Increased eroded surface, bone, Moderate [2, 3]: 0
Number of animals: Mixed cell inflammation, Marked [2, 3]: 0
Number of animals: Mixed cell inflammation, Mild [2, 3]: 0
Number of animals: Mixed cell inflammation, Minimal [2, 3]: 0
Number of animals: Mixed cell inflammation, Moderate [2, 3]: 0
Number of animals: No Visible Lesions [2, 3]: 8
